Measurements reported in patent US20230287021A1, “COMPOUNDS, COMPOSITIONS AND METHODS FOR STABILIZING TRANSTHYRETIN AND INHIBITING TRANSTHYRETIN MISFOLDING” (Protego Biopharma, Inc., priority 2020, published 2023).
Counter-ions that a name gives are not always drawn.

Columns and labels:
[1] = In vivo rat PK: tafamidis in plasma, CSF and brain; set-up: species or system Male Sprague-Dawley (SD) rats; details: for Tafamidis CSF/Plasma Ratio over 24 hrs (po): po administration of test compound; for Tafamidis CSF/Plasma Ratio (iv): iv administration of test compound
From the text: For a compound provided herein to be an effective TTR stabilizer drug to halt and/or prevent the ocular and cerebral TTR amyloid deposition TTR amyloidosis, it has to be able to penetrate into the brain and CSF (surrogate for eye penetration) and deliver a sufficient amount of TTR stabilizer to stop TTR dissociation. A pharmacokinetic study in rat was used to evaluate the compounds. Male Sprague-Dawley (SD) rats (200-220 g weight) were acclimated for at least 2 to 3 days before being placed on study. All animals had access to certified rodent diet and water at libitum. Appropriate amount of the test compound was accurately weighed and mixed with appropriate volume of vehicle (such as DMSO/sterile water for iv dosing or 0.5% methylcellulose homogenous suspension or solution for oral administration or as a solution in a mixture NMP/PEG400/solutol/water) to administer a dose of 2, 5 or 10 mg/kg. For IV dosing the test compound was administered via tail vein or indwelling cannula. For oral dosing, the test compound was administered by oral gavage. Blood and CSF samples were collected at selected timepoints. Blood collection was performed from saphenous vein or tail vein of each animal into polypropylene tubes at each timepoint. All blood samples were transferred into EDTA-K2 tubes and centrifuged for 15 minutes at 4° C. for plasma collection. Plasma samples were kept at -80° C. until LC/MSMS analysis. CSF was collected from cisterna magna at each timepoint and quick frozen over dry ice and kept at -80° C. until LC/MSMS analysis. Brains were harvested immediately after the terminal bleeding (~ 24 hrs post dosing). The blood of the brain was perfused with normal saline. The brain was quickly picked and placed into centrifuge tube. The weight of brain samples was recorded. 4-Fold homogenization solution (MeOH/15 mM PBS (1:2)) was added into the tube according to the weighed samples. The brain was homogenized using a Polytron (3 strokes or more until homogenous, each 30 seconds) on wet ice. The samples were quick frozen over dry ice and kept at -80° C. until LC/MSMS analysis. Using a LC-MSMS method for the quantitative determination of test compound in biological matrixes, amount of test compound and active agent were measured in plasma and CSF at selected timepoints post-dosing and in brain at 24 hrs post dosing. Plasma concentration versus time data was analyzed by non-compartmental approaches using the Phoenix WinNonlin 6.3 software program. As reference, an oral dose of 2 mg/kg of tafamidis gave a CSF to plasma ratio over 24 hrs around 0.01 and a brain to plasma ratio at 24 hrs around 0.02.

[2] = In vitro rat plasma stability assay, formation of tafamidis; type: in vitro ADME; details: 37° C., 2 µM test compound
Method in brief: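 Compound at 2 µM incubated in rat plasma at 37 °C, sampled at 0, 10, 30, 60, 120 min or 0, 60, 120, 180, 240 min. Protein precipitated, supernatant analyzed by LC-MS/MS, and percentage formation of tafamidis calculated per time point.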

[3] = In vitro rat liver S9 stability assay, formation of tafamidis; type: in vitro ADME; details: rat liver S9, 37° C., 1 µM test compound
Description: The test compound was added to liver S9 and incubated at 37° C. in a water bath at a concentration of 1 µM. At each time point (0, 5, 10, 20, 30 and 60 min), stop solution (tolbutamide plus labetalol) was added to precipitate protein and mixed thoroughly. After centrifugation, an aliquot of supernatant was analyzed by LC-MS/MS. The percentage of formation of active agent was calculated at each time point.

[4] = tafamidis-treated FAP patients, cited from earlier work

For CC(OC(=O)c1ccc2nc(-c3cc(Cl)cc(Cl)c3)oc2c1)C1CCOC1 (centres unmarked) [Compound 161], the “Tafamidis CSF/Plasma Ratio over 24 hrs (po)” value [1] was “A (A is < 0.015)”, the “Formation of tafamidis at 120 min” value [2] was “B (B is ≥25 to <50%)” and the “Formation of tafamidis at 60 min” value [3] was “B (B is ≥25 to <50%)”.
In the case of CN1CC[C@@H](OC(=O)c2ccc3nc(-c4cc(Cl)cc(Cl)c4)oc3c2)C1 [Compound 59, (R)-1-methylpyrrolidin-3-yl 2-(3,5-dichlorophenyl)benzo[d] oxazole-6-carboxylate], the “Tafamidis CSF/Plasma Ratio over 24 hrs (po)” value [1] is reported as “B (B is ≥0.015 to <0.02)”, the “Formation of tafamidis at 120 min” value [2] is reported as “C (C is ≥50 to <75%)” and the “Formation of tafamidis at 60 min” value [3] is reported as “A (A is <25%)”.
For O=C(OCCCn1ccnc1)c1ccc2nc(-c3cc(Cl)cc(Cl)c3)oc2c1 [Compound 117], the “Tafamidis CSF/Plasma Ratio over 24 hrs (po)” value [1] was “B (B is ≥0.015 to <0.02)”, the “Formation of tafamidis at 120 min” value [2] was “B (B is ≥25 to <50%)” and the “Formation of tafamidis at 60 min” value [3] was “D (D is ≥75%)”.
For O=C(OCCCN1CCCCC1)c1ccc2nc(-c3cc(Cl)cc(Cl)c3)oc2c1 [Compound 41, 3-(piperidin-1-yl)propyl 2-(3,5-dichlorophenyl)benzo[d] oxazole-6-carboxylate], the “Tafamidis CSF/Plasma Ratio (iv)” value [1] was “C (C is ≥0.02)”, the “Tafamidis CSF/Plasma Ratio over 24 hrs (po)” value [1] was “A (A is < 0.015)” and the “Formation of tafamidis at 120 min” value [2] was “C (C is ≥50 to <75%)”. The “Formation of tafamidis at 60 min” value [3] was “A (A is <25%)”.
With CC(OC(=O)c1ccc2nc(-c3cc(Cl)cc(Cl)c3)oc2c1)c1ccn(C)n1 (centres unmarked) [Compound 160] the “Tafamidis CSF/Plasma Ratio over 24 hrs (po)” value [1] was “A (A is < 0.015)”, the “Formation of tafamidis at 120 min” value [2] was “C (C is ≥50 to <75%)” and the “Formation of tafamidis at 60 min” value [3] was “C (C is ≥50 to <75%)”.
For CC(C)N1CCC(OC(=O)c2ccc3nc(-c4cc(Cl)cc(Cl)c4)oc3c2)C1 (centres unmarked) [Compound 75], the “Tafamidis CSF/Plasma Ratio over 24 hrs (po)” value [1] was “B (B is ≥0.015 to <0.02)”, the “Formation of tafamidis at 120 min” value [2] was “B (B is ≥25 to <50%)” and the “Formation of tafamidis at 60 min” value [3] was “A (A is <25%)”.
For O=C(OC1CCn2cncc21)c1ccc2nc(-c3cc(Cl)cc(Cl)c3)oc2c1 (centres unmarked) [Compound 156, 6,7-dihydro-5H-pyrrolo[1,2-c]imidazol-7-yl 2-(3,5-dichlorophenyl)-benzo[d]oxazole-6-carboxylate], the “Tafamidis CSF/Plasma Ratio over 24 hrs (po)” value [1] was “B (B is ≥0.015 to <0.02)”, the “Formation of tafamidis at 120 min” value [2] was “D (D is ≥75%)” and the “Formation of tafamidis at 60 min” value [3] was “C (C is ≥50 to <75%)”.
In the case of O=C(O)c1ccc2nc(-c3cc(Cl)cc(Cl)c3)oc2c1 [tafamidis], the “tafamidis level in CSF relative to that in plasma” value ([4]; CSF) is given as 2%, the “tafamidis/TTR stoichiometric ratio in plasma” value ([4]; plasma) is given as 2.4 and the “tafamidis/TTR stoichiometric ratio in vitreous and CSF” value ([4]; vitreous and CSF) is given as at most 1. For the same molecule, the “tafamidis level in vitreous relative to that in plasma” value ([4]; vitreous) was 0.5%, the Kp ([1]; male, Sprague-Dawley, CSF and plasma, oral dose of 2 mg/kg of tafamidis, reference, read-out: CSF to plasma ratio over 24 hrs) was about 0.01 and the Kp at 24 h ([1]; male, Sprague-Dawley, brain and plasma, oral dose of 2 mg/kg of tafamidis, reference, read-out: brain to plasma ratio at 24 hrs) was about 0.02.
With CCN(CC)CCCOC(=O)c1ccc2nc(-c3cc(Cl)cc(Cl)c3)oc2c1 [Compound 38, 3-(diethylamino)propyl 2-(3,5-dichlorophenyl)benzo[d] oxazole-6-carboxylate] the “Tafamidis CSF/Plasma Ratio (iv)” value [1] was “B (B is ≥0.015 to <0.02)”, the “Tafamidis CSF/Plasma Ratio over 24 hrs (po)” value [1] was “B (B is ≥0.015 to <0.02)” and the “Formation of tafamidis at 120 min” value [2] was “B (B is ≥25 to <50%)”. For the same molecule, the “Formation of tafamidis at 60 min” value [3] was “A (A is <25%)”.
For O=C(OC1CCN(CC(F)(F)F)C1)c1ccc2nc(-c3cc(Cl)cc(Cl)c3)oc2c1 (centres unmarked) [Compound 151], the “Tafamidis CSF/Plasma Ratio over 24 hrs (po)” value [1] was “B (B is ≥0.015 to <0.02)”, the “Formation of tafamidis at 120 min” value [2] was “A (A is <25%)” and the “Formation of tafamidis at 60 min” value [3] was “D (D is ≥75%)”.
In the case of O=C(OCCN1CCNCC1)c1ccc2nc(-c3cc(Cl)cc(Cl)c3)oc2c1 [Compound 82], the “Tafamidis CSF/Plasma Ratio over 24 hrs (po)” value [1] is reported as “A (A is < 0.015)”, the “Formation of tafamidis at 120 min” value [2] is reported as “A (A is <25%)” and the “Formation of tafamidis at 60 min” value [3] is reported as “A (A is <25%)”.
With CC(CN(C)C)OC(=O)c1ccc2nc(-c3cc(Cl)cc(Cl)c3)oc2c1 (single isomer, unassigned) [Compound 47, (R*)-1-(dimethylamino)propan-2-yl 2-(3,5-dichlorophenyl)benzo [d] oxazole-6-carboxylate] the “Tafamidis CSF/Plasma Ratio over 24 hrs (po)” value [1] was “A (A is < 0.015)”, the “Formation of tafamidis at 120 min” value [2] was “D (D is ≥75%)” and the “Formation of tafamidis at 60 min” value [3] was “A (A is <25%)”.
With CCN1CCCC(OC(=O)c2ccc3nc(-c4cc(Cl)cc(Cl)c4)oc3c2)C1 (centres unmarked) [Compound 163] the “Tafamidis CSF/Plasma Ratio over 24 hrs (po)” value [1] was “A (A is < 0.015)”, the “Formation of tafamidis at 120 min” value [2] was “C (C is ≥50 to <75%)” and the “Formation of tafamidis at 60 min” value [3] was “B (B is ≥25 to <50%)”.
For O=C(OCCN1CCS(=O)(=O)CC1)c1ccc2nc(-c3cc(Cl)cc(Cl)c3)oc2c1 [Compound 79], the “Tafamidis CSF/Plasma Ratio over 24 hrs (po)” value [1] was “A (A is < 0.015)”, the “Formation of tafamidis at 120 min” value [2] was “B (B is ≥25 to <50%)” and the “Formation of tafamidis at 60 min” value [3] was “C (C is ≥50 to <75%)”.
In the case of O=C(NCC(F)F)c1ccc2nc(-c3cc(Cl)cc(Cl)c3)oc2c1 [Compound 66, 2-(3,5-dichlorophenyl)-N-(2,2-difluoroethyl)benzo[d]oxazole-6-carboxamide], the “Tafamidis CSF/Plasma Ratio over 24 hrs (po)” value [1] is reported as “C (C is ≥0.02)”, the “Formation of tafamidis at 120 min” value [2] is reported as “A (A is <25%)” and the “Formation of tafamidis at 60 min” value [3] is reported as “A (A is <25%)”.
In the case of CCN1CCC(OC(=O)c2ccc3nc(-c4cc(Cl)cc(Cl)c4)oc3c2)C1 (centres unmarked) [Compound 74], the “Tafamidis CSF/Plasma Ratio over 24 hrs (po)” value [1] is reported as “C (C is ≥0.02)”, the “Formation of tafamidis at 120 min” value [2] is reported as “C (C is ≥50 to <75%)” and the “Formation of tafamidis at 60 min” value [3] is reported as “A (A is <25%)”.
In the case of CN1CCC(COC(=O)c2ccc3nc(-c4cc(Cl)cc(Cl)c4)oc3c2)C1 (centres unmarked) [Compound 60, (1-methylpyrrolidin-3-yl)methyl 2-(3,5-dichlorophenyl)benzo [d] oxazole-6-carboxylate], the “Tafamidis CSF/Plasma Ratio (iv)” value [1] is reported as “B (B is ≥0.015 to <0.02)”, the “Formation of tafamidis at 120 min” value [2] is reported as “A (A is <25%)” and the “Formation of tafamidis at 60 min” value [3] is reported as “A (A is <25%)”.
With O=C(OCCc1ncc[nH]1)c1ccc2nc(-c3cc(Cl)cc(Cl)c3)oc2c1 [Compound 153] the “Tafamidis CSF/Plasma Ratio over 24 hrs (po)” value [1] was “B (B is ≥0.015 to <0.02)”, the “Formation of tafamidis at 120 min” value [2] was “B (B is ≥25 to <50%)” and the “Formation of tafamidis at 60 min” value [3] was “B (B is ≥25 to <50%)”.
For Cn1ccc(COC(=O)c2ccc3nc(-c4cc(Cl)cc(Cl)c4)oc3c2)n1 [Compound 90], the “Tafamidis CSF/Plasma Ratio over 24 hrs (po)” value [1] was “A (A is < 0.015)”, the “Formation of tafamidis at 120 min” value [2] was “A (A is <25%)” and the “Formation of tafamidis at 60 min” value [3] was “D (D is ≥75%)”.
In the case of CCN(CC)CCOC(=O)c1ccc2nc(-c3cc(Cl)cc(Cl)c3)oc2c1 [Compound 35, 2-(diethylamino)ethyl 2-(3,5-dichlorophenyl)benzo[d]oxazole-6-carboxylate hydrochloride], the “Tafamidis CSF/Plasma Ratio (iv)” value [1] is reported as “B (B is ≥0.015 to <0.02)”, the “Formation of tafamidis at 120 min” value [2] is reported as “C (C is ≥50 to <75%)” and the “Formation of tafamidis at 60 min” value [3] is reported as “B (B is ≥25 to <50%)”.
